Tests used:
[1] = The drug is tested on Collinsella aerofaciens strain: ATCC25986 for biotransformation. The drug concentrations were measured before and after a 12-h incubation by liquid-chromatography-coupled mass spectrometry (LC–MS); conditions: 2 µM
[2] = The drug is tested on Ruminococcus gnavus strain: ATCC29149 for biotransformation. The drug concentrations were measured before and after a 12-h incubation by liquid-chromatography-coupled mass spectrometry (LC–MS); conditions: mediterraneibacter gnavus, 2 µM
[3] = The drug is tested on Coprococcus comes strain: ATCC27758 for biotransformation. The drug concentrations were measured before and after a 12-h incubation by liquid-chromatography-coupled mass spectrometry (LC–MS); format: ADME; design: dose 2 uM, timepoint 0 vs 12 hours; conditions: 2 µM
[4] = parabacteroides distasonis, 12 h, 2 µM
Description: The drug is tested on Parabacteroides distasonis strain: ATCC8503 for biotransformation. The drug concentrations were measured before and after a 12-h incubation by liquid-chromatography-coupled mass spectrometry (LC–MS)

[5] = The drug is tested on Bifidobacterium ruminantium strain: fecal isolate for biotransformation. The drug concentrations were measured before and after a 12-h incubation by liquid-chromatography-coupled mass spectrometry (LC–MS); conditions: 2 µM
[6] = The drug is tested on Escherichia coli strain: BW25113 for biotransformation. The drug concentrations were measured before and after a 12-h incubation by liquid-chromatography-coupled mass spectrometry (LC–MS); conditions: 2 µM
[7] = The drug is tested on Clostridium symbiosum strain: ATCC14940 for biotransformation. The drug concentrations were measured before and after a 12-h incubation by liquid-chromatography-coupled mass spectrometry (LC–MS); conditions: 2 µM
[8] = The drug is tested on Ruminococcus torques strain: ATCC27756 for biotransformation. The drug concentrations were measured before and after a 12-h incubation by liquid-chromatography-coupled mass spectrometry (LC–MS); format: ADME; design: dose 2 uM, timepoint 0 vs 12 hours; conditions: 2 µM
[9] = bacteroides stercoris, 12 h, 2 µM
Description: The drug is tested on Bacteroides stercoris strain: ATCC43183 for biotransformation. The drug concentrations were measured before and after a 12-h incubation by liquid-chromatography-coupled mass spectrometry (LC–MS)

[10] = The drug is tested on Bacteroides uniformis strain: ATCC8492 for biotransformation. The drug concentrations were measured before and after a 12-h incubation by liquid-chromatography-coupled mass spectrometry (LC–MS); conditions: 2 µM
[11] = bacteroides fragilis, 12 h, 2 µM
Description: The drug is tested on Bacteroides fragilis strain: 3397 (T10) for biotransformation. The drug concentrations were measured before and after a 12-h incubation by liquid-chromatography-coupled mass spectrometry (LC–MS)

[12] = The drug is tested on Providencia rettgeri strain: DSM1131 for biotransformation. The drug concentrations were measured before and after a 12-h incubation by liquid-chromatography-coupled mass spectrometry (LC–MS); format: ADME; design: dose 2 uM, timepoint 0 vs 12 hours; conditions: 2 µM
[13] = The drug is tested on Bacteroides xylanisolvens strain: DSM18836 for biotransformation. The drug concentrations were measured before and after a 12-h incubation by liquid-chromatography-coupled mass spectrometry (LC–MS); conditions: 2 µM
[14] = The drug is tested on Collinsella intestinalis strain: DSM13280 for biotransformation. The drug concentrations were measured before and after a 12-h incubation by liquid-chromatography-coupled mass spectrometry (LC–MS); conditions: 2 µM
[15] = The drug is tested on Bacteroides coprophilus strain: DSM18228 for biotransformation. The drug concentrations were measured before and after a 12-h incubation by liquid-chromatography-coupled mass spectrometry (LC–MS); conditions: 2 µM
[16] = The drug is tested on Subdoligranulum variabile strain: DSM15176 for biotransformation. The drug concentrations were measured before and after a 12-h incubation by liquid-chromatography-coupled mass spectrometry (LC–MS); conditions: 2 µM
[17] = roseburia intestinalis, 12 h, 2 µM
Description: The drug is tested on Roseburia intestinalis strain: L1-82 for biotransformation. The drug concentrations were measured before and after a 12-h incubation by liquid-chromatography-coupled mass spectrometry (LC–MS)

[18] = limosilactobacillus reuteri cf48-3a, 12 h, 2 µM
Description: The drug is tested on Lactobacillus reuteri CF48-3A strain: BEI HM-102 for biotransformation. The drug concentrations were measured before and after a 12-h incubation by liquid-chromatography-coupled mass spectrometry (LC–MS)

[19] = The drug is tested on Clostridium sporogenes strain: ATCC15579 for biotransformation. The drug concentrations were measured before and after a 12-h incubation by liquid-chromatography-coupled mass spectrometry (LC–MS); conditions: 2 µM
[20] = The drug is tested on Bacteroides vulgatus strain: ATCC8482 for biotransformation. The drug concentrations were measured before and after a 12-h incubation by liquid-chromatography-coupled mass spectrometry (LC–MS); conditions: phocaeicola vulgatus, 2 µM
[21] = bacteroides fragilis, 12 h, 2 µM; remark: listed apart in the source
Description: The drug is tested on Bacteroides fragilis strain: DS-208 for biotransformation. The drug concentrations were measured before and after a 12-h incubation by liquid-chromatography-coupled mass spectrometry (LC–MS)

[22] = The drug is tested on Anaerococcus hydrogenalis strain: DSM7454 for biotransformation. The drug concentrations were measured before and after a 12-h incubation by liquid-chromatography-coupled mass spectrometry (LC–MS); conditions: 2 µM
[23] = The drug is tested on Eubacterium hallii strain: DSM3353 for biotransformation. The drug concentrations were measured before and after a 12-h incubation by liquid-chromatography-coupled mass spectrometry (LC–MS); conditions: anaerobutyricum hallii, 2 µM
[24] = bifidobacterium adolescentis, 12 h, 2 µM
Description: The drug is tested on Bifidobacterium adolescentis strain: ATCC 15703 for biotransformation. The drug concentrations were measured before and after a 12-h incubation by liquid-chromatography-coupled mass spectrometry (LC–MS)

[25] = parabacteroides johnsonii, 12 h, 2 µM
Description: The drug is tested on Parabacteroides johnsonii strain: DSM18315 for biotransformation. The drug concentrations were measured before and after a 12-h incubation by liquid-chromatography-coupled mass spectrometry (LC–MS)

[26] = The drug is tested on Bacteroides pectinophilus strain: ATCC43243 for biotransformation. The drug concentrations were measured before and after a 12-h incubation by liquid-chromatography-coupled mass spectrometry (LC–MS); conditions: 2 µM
[27] = The drug is tested on Alistipes indistinctus strain: DSM22520 for biotransformation. The drug concentrations were measured before and after a 12-h incubation by liquid-chromatography-coupled mass spectrometry (LC–MS); conditions: 2 µM
[28] = The drug is tested on Eubacterium rectale strain: ATCC33656 for biotransformation. The drug concentrations were measured before and after a 12-h incubation by liquid-chromatography-coupled mass spectrometry (LC–MS); conditions: agathobacter rectalis, 2 µM
[29] = bacteroides fragilis, 12 h, 2 µM; remark: listed apart in the source
Description: The drug is tested on Bacteroides fragilis strain: NCTC 9343 for biotransformation. The drug concentrations were measured before and after a 12-h incubation by liquid-chromatography-coupled mass spectrometry (LC–MS)

[30] = The drug is tested on Parabacteroides merdae strain: ATCC43184 for biotransformation. The drug concentrations were measured before and after a 12-h incubation by liquid-chromatography-coupled mass spectrometry (LC–MS); conditions: 2 µM
[31] = The drug is tested on Bacteroides finegoldii strain: DSM17565 for biotransformation. The drug concentrations were measured before and after a 12-h incubation by liquid-chromatography-coupled mass spectrometry (LC–MS); conditions: 2 µM
[32] = akkermansia muciniphila, 12 h, 2 µM
Description: The drug is tested on Akkermansia muciniphila strain: ATCC BAA-835 for biotransformation. The drug concentrations were measured before and after a 12-h incubation by liquid-chromatography-coupled mass spectrometry (LC–MS)

[33] = The drug is tested on Bifidobacterium longum subsp. Infantis strain: CCUG52486 for biotransformation. The drug concentrations were measured before and after a 12-h incubation by liquid-chromatography-coupled mass spectrometry (LC–MS); conditions: 2 µM
[34] = The drug is tested on Bacteroides caccae strain: ATCC43185 for biotransformation. The drug concentrations were measured before and after a 12-h incubation by liquid-chromatography-coupled mass spectrometry (LC–MS); conditions: 2 µM
[35] = The drug is tested on Bacteroides ovatus strain: ATCC8483 for biotransformation. The drug concentrations were measured before and after a 12-h incubation by liquid-chromatography-coupled mass spectrometry (LC–MS); conditions: 2 µM
[36] = enterocloster bolteae, 12 h, 2 µM
Description: The drug is tested on Clostridium bolteae strain: ATCCBAA-613 for biotransformation. The drug concentrations were measured before and after a 12-h incubation by liquid-chromatography-coupled mass spectrometry (LC–MS)

[37] = anaerostipes sp., 12 h, 2 µM
Description: The drug is tested on Anaerostipes sp. strain: fecal isolate for biotransformation. The drug concentrations were measured before and after a 12-h incubation by liquid-chromatography-coupled mass spectrometry (LC–MS)

[38] = The drug is tested on Bacteroides sp. WH2 strain: WH2 for biotransformation. The drug concentrations were measured before and after a 12-h incubation by liquid-chromatography-coupled mass spectrometry (LC–MS); conditions: bacteroides sp. wh2, 12 h, 2 µM
[39] = The drug is tested on Bifidobacterium breve strain: DSM20213 for biotransformation. The drug concentrations were measured before and after a 12-h incubation by liquid-chromatography-coupled mass spectrometry (LC–MS); conditions: 2 µM
[40] = The drug is tested on Eggerthella lenta strain: ATCC25559 for biotransformation. The drug concentrations were measured before and after a 12-h incubation by liquid-chromatography-coupled mass spectrometry (LC–MS); conditions: 2 µM
[41] = The drug is tested on Bacteroides fragilis strain: HMW615 for biotransformation. The drug concentrations were measured before and after a 12-h incubation by liquid-chromatography-coupled mass spectrometry (LC–MS); conditions: 2 µM
[42] = segatella copri, 12 h, 2 µM
Description: The drug is tested on Prevotella copri strain: DSM18205 for biotransformation. The drug concentrations were measured before and after a 12-h incubation by liquid-chromatography-coupled mass spectrometry (LC–MS)

[43] = bacteroides eggerthii, 12 h, 2 µM
Description: The drug is tested on Bacteroides eggerthii strain: DSM20697 for biotransformation. The drug concentrations were measured before and after a 12-h incubation by liquid-chromatography-coupled mass spectrometry (LC–MS)

With COc1cc(NC(C)CCCN)c2ncccc2c1.O=P(O)(O)O.O=P(O)(O)O (stereo not drawn) [PRIMAQUINE PHOSPHATE] the “Bacterial Biotransformation” value [1] was “Compound metabolized”, the “Bacterial Biotransformation” value [2] was “Compound NOT metabolized” and the “Bacterial Biotransformation” value [3] was “Compound NOT metabolized”. For the same compound, the “Bacterial Biotransformation” value [4] was “Compound metabolized”, the “Bacterial Biotransformation” value [5] was “Compound metabolized” and the “Bacterial Biotransformation” value [6] was “Compound metabolized”. The “Bacterial Biotransformation” value [7] was “Compound metabolized”, the “Bacterial Biotransformation” value [8] was “Compound NOT metabolized” and the “Bacterial Biotransformation” value [9] was “Compound NOT metabolized”. The “Bacterial Biotransformation” value [10] was “Compound metabolized”, the “Bacterial Biotransformation” value [11] was “Compound metabolized” and the “Bacterial Biotransformation” value [12] was “Compound NOT metabolized”. The “Bacterial Biotransformation” value [13] was “Compound metabolized”, the “Bacterial Biotransformation” value [14] was “Compound metabolized” and the “Bacterial Biotransformation” value [15] was “Compound NOT metabolized”. For the same compound, the “Bacterial Biotransformation” value [16] was “Compound NOT metabolized”, the “Bacterial Biotransformation” value [17] was “Compound NOT metabolized” and the “Bacterial Biotransformation” value [18] was “Compound NOT metabolized”. For the same compound, the “Bacterial Biotransformation” value [19] was “Compound NOT metabolized”, the “Bacterial Biotransformation” value [20] was “Compound NOT metabolized” and the “Bacterial Biotransformation” value [21] was “Compound NOT metabolized”. The “Bacterial Biotransformation” value [22] was “Compound metabolized”, the “Bacterial Biotransformation” value [23] was “Compound NOT metabolized” and the “Bacterial Biotransformation” value [24] was “Compound NOT metabolized”. For the same compound, the “Bacterial Biotransformation” value [25] was “Compound metabolized”, the “Bacterial Biotransformation” value [26] was “Compound metabolized” and the “Bacterial Biotransformation” value [27] was “Compound NOT metabolized”. The “Bacterial Biotransformation” value [28] was “Compound NOT metabolized”, the “Bacterial Biotransformation” value [29] was “Compound NOT metabolized” and the “Bacterial Biotransformation” value [30] was “Compound NOT metabolized”. For the same compound, the “Bacterial Biotransformation” value [31] was “Compound metabolized”, the “Bacterial Biotransformation” value [32] was “Compound NOT metabolized” and the “Bacterial Biotransformation” value [33] was “Compound metabolized”. The “Bacterial Biotransformation” value [34] was “Compound NOT metabolized”, the “Bacterial Biotransformation” value [35] was “Compound metabolized” and the “Bacterial Biotransformation” value [36] was “Compound metabolized”. For the same compound, the “Bacterial Biotransformation” value [37] was “Compound NOT metabolized”, the “Bacterial Biotransformation” value [38] was “Compound NOT metabolized” and the “Bacterial Biotransformation” value [39] was “Compound metabolized”. For the same compound, the “Bacterial Biotransformation” value [40] was “Compound NOT metabolized”, the “Bacterial Biotransformation” value [41] was “Compound NOT metabolized” and the “Bacterial Biotransformation” value [42] was “Compound metabolized”. For the same compound, the “Bacterial Biotransformation” value [43] was “Compound NOT metabolized”.

Reference: ChEMBL document CHEMBL5303573, “Mapping human microbiome drug metabolism by gut bacteria and their genes” (Nature, 2019)
